Data taken from PubChem BioAssay (NCI).
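Five concentrations, 48 hours, 96-well plates. The concentration for 50% growth inhibition is given as GI50. TGI marks complete inhibition of growth.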

What was measured:
Assay in all cases: growth of human tumour cells (NCI), 48 h
A549 NSCLC = system: A549 NSCLC
UO-31 renal = system: UO-31 renal
MDA-MB-231 breast = system: MDA-MB-231 breast
SF-295 CNS = system: SF-295 CNS
MCF7 breast = system: MCF7 breast
UACC-257 melanoma = system: UACC-257 melanoma
NCI/ADR-RES ovarian = system: NCI/ADR-RES ovarian
A498 renal = system: A498 renal
NCI-H23 lung = system: NCI-H23 lung
TK-10 renal = system: TK-10 renal
M14 melanoma = system: M14 melanoma
MDA-MB-468 breast = system: MDA-MB-468 breast
HOP-92 NSCLC = system: HOP-92 NSCLC
HT29 colon = system: HT29 colon
MDA-MB-435 = system: MDA-MB-435
SK-OV-3 ovarian = system: SK-OV-3 ovarian
U251 CNS = system: U251 CNS
BT-549 breast = system: BT-549 breast
UACC-62 melanoma = system: UACC-62 melanoma
HOP-62 NSCLC = system: HOP-62 NSCLC
CCRF-CEM leukemia = system: CCRF-CEM leukemia
DU-145 prostate = system: DU-145 prostate
OVCAR-5 ovarian = system: OVCAR-5 ovarian
SK-MEL-2 melanoma = system: SK-MEL-2 melanoma
EKVX NSCLC = system: EKVX NSCLC
MOLT-4 leukemia = system: MOLT-4 leukemia
SNB-75 CNS = system: SNB-75 CNS
K-562 leukemia = system: K-562 leukemia
SW-620 colon = system: SW-620 colon
COLO 205 colon = system: COLO 205 colon
SN12C renal = system: SN12C renal
IGROV1 ovarian = system: IGROV1 ovarian
MALME-3M melanoma = system: MALME-3M melanoma
OVCAR-3 ovarian = system: OVCAR-3 ovarian
RXF 393 renal = system: RXF 393 renal
SNB-19 CNS = system: SNB-19 CNS
786-0 renal = system: 786-0 renal
NCI-H522 lung = system: NCI-H522 lung
HCT-116 colon = system: HCT-116 colon
PC-3 prostate = system: PC-3 prostate
NCI-H226 lung = system: NCI-H226 lung
OVCAR-8 ovarian = system: OVCAR-8 ovarian
T-47D breast = system: T-47D breast
SF-268 CNS = system: SF-268 CNS
ACHN renal = system: ACHN renal
SK-MEL-28 melanoma = system: SK-MEL-28 melanoma
HL-60(TB) leukemia = system: HL-60(TB) leukemia
SK-MEL-5 melanoma = system: SK-MEL-5 melanoma
SF-539 CNS = system: SF-539 CNS
HCT-15 colon = system: HCT-15 colon
LOX IMVI melanoma = system: LOX IMVI melanoma
HCC-2998 colon = system: HCC-2998 colon
CAKI-1 renal = system: CAKI-1 renal
OVCAR-4 ovarian = system: OVCAR-4 ovarian
KM12 colon = system: KM12 colon
HS 578T breast = system: HS 578T breast

For `O=C(NN1C(=O)/C(=C/C=C/c2ccc([N+](=O)[O-])o2)SC1=S)c1ccncc1`, which GI50 (A549 NSCLC) is on record?
The GI50 was 2.86 µM.

What about the TGI (A549 NSCLC) of the same compound?
Its TGI is 10.8 µM.

And the GI50 (UO-31 renal)?
Its GI50 is 1.16 µM.

And the TGI (UO-31 renal)?
The TGI was 2.39 µM.

And the GI50 (MDA-MB-231 breast)?
The GI50 was 0.655 µM.

And the TGI (MDA-MB-231 breast)?
The TGI was 1.94 µM.

What about the GI50 (SF-295 CNS) of the same compound?
Its GI50 is 1.76 µM.

What about the TGI (SF-295 CNS) of the same compound?
The TGI was 3.27 µM.

What about the GI50 (MCF7 breast) of the same compound?
Its GI50 is 0.451 µM.

What about the TGI (MCF7 breast) of the same compound?
The TGI was 2.07 µM.

What about the GI50 (UACC-257 melanoma) of the same compound?
The GI50 was 1.53 µM.

And the TGI (UACC-257 melanoma)?
The TGI was 3.31 µM.

And the GI50 (NCI/ADR-RES ovarian)?
The GI50 was 1.42 µM.

What about the TGI (NCI/ADR-RES ovarian) of the same compound?
Its TGI is 7.08 µM.

And the GI50 (A498 renal)?
The GI50 was 17.1 µM.

What about the TGI (A498 renal) of the same compound?
Its TGI is 31 µM.

And the GI50 (NCI-H23 lung)?
The GI50 was 1.23 µM.

And the TGI (NCI-H23 lung)?
The TGI was 2.67 µM.

And the GI50 (TK-10 renal)?
The GI50 was 1.63 µM.

And the TGI (TK-10 renal)?
Its TGI is 3.03 µM.

What about the GI50 (M14 melanoma) of the same compound?
Its GI50 is 0.547 µM.

What about the TGI (M14 melanoma) of the same compound?
Its TGI is 1.93 µM.

What about the GI50 (MDA-MB-468 breast) of the same compound?
Its GI50 is 1.2 µM.

And the TGI (MDA-MB-468 breast)?
Its TGI is 2.64 µM.

What about the GI50 (HOP-92 NSCLC) of the same compound?
The GI50 was 1.65 µM.

And the TGI (HOP-92 NSCLC)?
The TGI was 3.35 µM.

And the GI50 (HT29 colon)?
The GI50 was 1.65 µM.

What about the TGI (HT29 colon) of the same compound?
The TGI was 3.54 µM.

And the GI50 (MDA-MB-435)?
The GI50 was 0.634 µM.

What about the TGI (MDA-MB-435) of the same compound?
The TGI was 2.22 µM.

And the GI50 (SK-OV-3 ovarian)?
The GI50 was 3.03 µM.

What about the TGI (SK-OV-3 ovarian) of the same compound?
Its TGI is 9.27 µM.

What about the GI50 (U251 CNS) of the same compound?
Its GI50 is 1.03 µM.

And the TGI (U251 CNS)?
The TGI was 2.66 µM.

And the GI50 (BT-549 breast)?
Its GI50 is 0.495 µM.

And the TGI (BT-549 breast)?
The TGI was 1.66 µM.

And the GI50 (UACC-62 melanoma)?
The GI50 was 0.377 µM.

And the TGI (UACC-62 melanoma)?
The TGI was 1.45 µM.

And the GI50 (HOP-62 NSCLC)?
The GI50 was 1.58 µM.

And the TGI (HOP-62 NSCLC)?
The TGI was 3.14 µM.

And the GI50 (CCRF-CEM leukemia)?
The GI50 was 0.346 µM.

And the TGI (CCRF-CEM leukemia)?
The TGI was 3.57 µM.

And the GI50 (DU-145 prostate)?
The GI50 was 1.96 µM.

What about the TGI (DU-145 prostate) of the same compound?
The TGI was 4.8 µM.

And the GI50 (OVCAR-5 ovarian)?
The GI50 was 1.9 µM.

What about the TGI (OVCAR-5 ovarian) of the same compound?
Its TGI is 3.38 µM.

And the GI50 (SK-MEL-2 melanoma)?
The GI50 was 0.584 µM.

And the TGI (SK-MEL-2 melanoma)?
The TGI was 2.02 µM.

And the GI50 (EKVX NSCLC)?
Its GI50 is 1.48 µM.

And the TGI (EKVX NSCLC)?
Its TGI is 2.89 µM.

And the GI50 (MOLT-4 leukemia)?
Its GI50 is 0.403 µM.

What about the TGI (MOLT-4 leukemia) of the same compound?
Its TGI is 2.21 µM.

What about the GI50 (SNB-75 CNS) of the same compound?
The GI50 was 1.33 µM.

And the TGI (SNB-75 CNS)?
The TGI was 7 µM.

And the GI50 (K-562 leukemia)?
Its GI50 is 0.294 µM.

What about the TGI (K-562 leukemia) of the same compound?
The TGI was greater than 100 µM.

And the GI50 (SW-620 colon)?
The GI50 was 0.274 µM.

What about the TGI (SW-620 colon) of the same compound?
The TGI was 0.739 µM.

And the GI50 (COLO 205 colon)?
Its GI50 is 1.52 µM.

What about the TGI (COLO 205 colon) of the same compound?
The TGI was 2.96 µM.

What about the GI50 (SN12C renal) of the same compound?
Its GI50 is 0.369 µM.

What about the TGI (SN12C renal) of the same compound?
Its TGI is 1.62 µM.

What about the GI50 (IGROV1 ovarian) of the same compound?
Its GI50 is 1.39 µM.

What about the TGI (IGROV1 ovarian) of the same compound?
The TGI was 2.7 µM.

What about the GI50 (MALME-3M melanoma) of the same compound?
Its GI50 is 0.24 µM.

And the TGI (MALME-3M melanoma)?
Its TGI is 0.541 µM.

What about the GI50 (OVCAR-3 ovarian) of the same compound?
Its GI50 is 1.28 µM.

What about the TGI (OVCAR-3 ovarian) of the same compound?
Its TGI is 3.01 µM.

And the GI50 (RXF 393 renal)?
The GI50 was 1.26 µM.

And the TGI (RXF 393 renal)?
The TGI was 2.65 µM.

And the GI50 (SNB-19 CNS)?
The GI50 was 1.8 µM.

What about the TGI (SNB-19 CNS) of the same compound?
The TGI was 3.93 µM.

What about the GI50 (786-0 renal) of the same compound?
Its GI50 is 0.96 µM.

What about the TGI (786-0 renal) of the same compound?
Its TGI is 2.39 µM.

And the GI50 (NCI-H522 lung)?
Its GI50 is 0.189 µM.

And the TGI (NCI-H522 lung)?
The TGI was 0.414 µM.

What about the GI50 (HCT-116 colon) of the same compound?
The GI50 was 0.239 µM.

And the TGI (HCT-116 colon)?
Its TGI is 0.565 µM.

What about the GI50 (PC-3 prostate) of the same compound?
Its GI50 is 1.93 µM.

And the TGI (PC-3 prostate)?
Its TGI is 4.96 µM.

And the GI50 (NCI-H226 lung)?
Its GI50 is 1.19 µM.

What about the TGI (NCI-H226 lung) of the same compound?
The TGI was 4.02 µM.

What about the GI50 (OVCAR-8 ovarian) of the same compound?
Its GI50 is 0.354 µM.

And the TGI (OVCAR-8 ovarian)?
The TGI was 3.22 µM.

What about the GI50 (T-47D breast) of the same compound?
The GI50 was 1.73 µM.

And the TGI (T-47D breast)?
Its TGI is 4.16 µM.

And the GI50 (SF-268 CNS)?
The GI50 was 1.69 µM.

And the TGI (SF-268 CNS)?
Its TGI is 3.95 µM.

And the GI50 (ACHN renal)?
Its GI50 is 1.46 µM.

And the TGI (ACHN renal)?
Its TGI is 2.77 µM.

What about the GI50 (SK-MEL-28 melanoma) of the same compound?
Its GI50 is 1.54 µM.

And the TGI (SK-MEL-28 melanoma)?
The TGI was 2.98 µM.

What about the GI50 (HL-60(TB) leukemia) of the same compound?
Its GI50 is 1.92 µM.

And the TGI (HL-60(TB) leukemia)?
Its TGI is 4.83 µM.

What about the GI50 (SK-MEL-5 melanoma) of the same compound?
The GI50 was 1.05 µM.

What about the TGI (SK-MEL-5 melanoma) of the same compound?
Its TGI is 2.24 µM.

And the GI50 (SF-539 CNS)?
Its GI50 is 0.402 µM.

And the TGI (SF-539 CNS)?
Its TGI is 1.45 µM.

And the GI50 (HCT-15 colon)?
The GI50 was 0.184 µM.

And the TGI (HCT-15 colon)?
The TGI was 0.404 µM.

What about the GI50 (LOX IMVI melanoma) of the same compound?
The GI50 was 0.203 µM.

And the TGI (LOX IMVI melanoma)?
Its TGI is 0.44 µM.

And the GI50 (HCC-2998 colon)?
Its GI50 is 1.77 µM.

And the TGI (HCC-2998 colon)?
Its TGI is 3.19 µM.

What about the GI50 (CAKI-1 renal) of the same compound?
Its GI50 is 1.47 µM.

What about the TGI (CAKI-1 renal) of the same compound?
Its TGI is 2.82 µM.

What about the GI50 (OVCAR-4 ovarian) of the same compound?
The GI50 was 1.62 µM.

And the TGI (OVCAR-4 ovarian)?
The TGI was 3.27 µM.

What about the GI50 (KM12 colon) of the same compound?
The GI50 was 1.63 µM.

And the TGI (KM12 colon)?
The TGI was 4.01 µM.

And the GI50 (HS 578T breast)?
Its GI50 is 1.74 µM.

What about the TGI (HS 578T breast) of the same compound?
Its TGI is 8.2 µM.
